# Results reported in patent US6706740B2, “Fungicidal heterocyclic aromatic amides and their compositions, methods of use and preparation” (Dow AgroSciences LLC, priority 1999, dated 2004).
# Where two headings read alike, the source gives them in different places.
# Legend:
# [1] = tested on: Stagonospora nodorum (Leptosphaeria nodorum—LEPTNO); assay: In vitro fungal growth inhibition, Stagonospora nodorum (LEPTNO); assay type: cell-based; conditions: Leptosphaeria, read-out: LEPTNO in vitro Growth Inhibition
# [2] = tested on: Phytophthora infestans (PHYTIN); assay: microbe, parasite or virus in culture; assay type: cell-based; conditions: Phytophthora infestans, read-out: PHYTIN in vitro Growth Inhibition
# [3] = tested on: Mycosphaerella graminicola (Septoria tritici—SEPTTR); assay: In vitro fungal growth inhibition, Mycosphaerella graminicola (SEPTTR); assay type: cell-based; conditions: Zymoseptoria tritici, read-out: SEPTTR in vitro Growth Inhibition
# Erysiphe graminis—ERYSGT = assay: Powdery Mildew of Wheat, in vivo whole plant, 24 Hour Protectant; conditions: for pest or weed control at 100 ppm: Erysiphe, read-out: ERYSGT in vivo 1 Day Protectant
# Septoria tritici—SEPTTR = assay: Leaf Blotch of Wheat, in vivo whole plant, 24 Hour Protectant; conditions: for pest or weed control at 100 ppm: Zymoseptoria tritici, 24 h, read-out: SEPTTR in vivo 1 Day Protectant
# [4] = tested on: Leptosphaeria nodorum—LEPTNO; assay: Glume Blotch of Wheat, in vivo whole plant, 24 Hour Protectant; conditions: for pest or weed control at 100 ppm: Leptosphaeria, read-out: LEPTNO in vivo 1 Day Protectant
# Ustilago maydis (USTIMA) = assay: microbe, parasite or virus in culture; assay type: cell-based; conditions: Mycosarcoma maydis, read-out: USTIMA in vitro Growth Inhibition
# [5] = tested on: Phytophthora infestans—PHYTIN; assay: whole plant or invertebrate; assay type: in vivo; conditions: for pest or weed control at 100 ppm: Phytophthora, in Solanum lycopersicum, 24 h, read-out: PHYTIN in vivo 1 Day Protectant
# [6] = tested on: Magnaporthe grisea (Pyricularia oryzae—PYRIOR); assay: microbe, parasite or virus in culture; assay type: cell-based; conditions: Pyricularia oryzae, read-out: PYRIOR in vitro Growth Inhibition
# [7] = tested on: Puccinia recondita—PUCCRT; assay: Brown Rust of Wheat, in vivo whole plant, 24 Hour Protectant; conditions: for pest or weed control at 100 ppm: Puccinia, read-out: PUCCRT in vivo 1 Day Protectant
# [8] = tested on: Rhizoctonia solani (RHIZSO); assay: microbe, parasite or virus in culture; assay type: cell-based; conditions: Rhizoctonia solani, read-out: RHIZSO in vitro Growth Inhibition
# [9] = wheat plants sprayed at 100 ppm, inoculated after 24 hours, control of fungal infection vs untreated plants
# [10] = 100 ppm spray, wheat, 24 hour protectant, % control of fungal infection vs untreated plants
Structure (SMILES),inhibition at 25 ppm ([1]; 25 ppm in the growth medium),inhibition at 25 ppm [2],inhibition at 25 ppm ([3]; 25 ppm in the growth medium),melting point,pest or weed control at 100 ppm (Erysiphe graminis—ERYSGT; [9]),pest or weed control at 100 ppm (Septoria tritici—SEPTTR; [9]),"pest or weed control at 100 ppm [4, 9]",inhibition at 25 ppm (Ustilago maydis (USTIMA)),pest or weed control at 100 ppm [5],inhibition at 25 ppm [6],"pest or weed control at 100 ppm [7, 9]",inhibition at 25 ppm [8],inhibition at 25 ppm ([1]; 25 ppm in growth medium),inhibition at 25 ppm ([3]; 25 ppm in growth medium),SEPTTR in vivo 1 Day Protectant (Septoria tritici—SEPTTR; [10]),"LEPTNO in vivo 1 Day Protectant [4, 10]","PUCCRT in vivo 1 Day Protectant [7, 10]",pest or weed control at 100 ppm (Erysiphe graminis—ERYSGT; [10]),also measured
CC1(C)CC(NC(=O)c2nc3ccccc3nc2O)CC(C)(C)C1 [Compound 563],< 80%,< 80%,< 80%,> 300 °C,< 25%,< 25%,25 to 74%,< 80%,< 25%,< 80%,< 25%,< 80%,,,,,,,
CC(=O)Oc1cccnc1C(=O)NC1CCC(OC(C)=O)CC1 (stereo not drawn) [Compound 564],< 80%,< 80%,< 80%,158 to 161 °C,< 25%,< 25%,25 to 74%,< 80%,< 25%,< 80%,< 25%,< 80%,,,,,,,
O=C(Oc1cccnc1C(=O)NC1CCC(OC(=O)c2ccccc2)CC1)c1ccccc1 (stereo not drawn) [Compound 567],< 80%,< 80%,< 80%,174 to 177 °C,< 25%,25 to 74%,25 to 74%,< 80%,,< 80%,< 25%,< 80%,,,,,,,"PHYTIN in vivo 1 Day Protectant ([5]; tomato plants sprayed at 100 ppm, inoculated after 24 hours, control of fungal infection vs untreated plants): + +"
Cc1ccnc(C(=O)N[C@H]2COC(=O)[C@H](Cc3ccccc3)[C@@H](OC(=O)C(C)C)[C@H](C)OC2=O)c1OC(=O)C(C)C [Compound 572],< 80%,< 80%,< 80%,163 to 166 °C,< 25%,25 to 74%,25 to 74%,< 80%,< 25%,< 80%,,< 80%,,,,,,,"PUCCRT in vivo 1 Day Protectant [7, 9]: + +"
C=C1COC(=O)[C@@H](NC(=O)c2nccc(OC)c2OC(C)=O)COC(=O)C1 [Compound 595],< 80%,< 80%,< 80%,163 to 164 °C,< 25%,< 25%,25 to 74%,< 80%,< 25%,< 80%,< 25%,< 80%,,,,,,,
CCC(=O)Oc1c(OC)ccnc1C(=O)N[C@H]1COC(=O)[C@H](Cc2ccccc2)[C@@H](OC(=O)C(C)C)[C@H](C)OC1=O [Compound 598],,< 80%,,171 to 172 °C,,,,< 80%,< 25%,< 80%,,< 80%,> 80%,> 80%,+ +,+ +,+ +,,ERYSGT in vivo 1 Day Protectant (Erysiphe graminis—ERYSGT; [10]): + +
CCCC(=O)Oc1c(OC)ccnc1C(=O)N[C@H]1COC(=O)[C@H](Cc2ccccc2)[C@@H](OC(=O)C(C)C)[C@H](C)OC1=O [Compound 599],,< 80%,,162 to 163 °C,,,,< 80%,< 25%,< 80%,,< 80%,> 80%,> 80%,+ +,+ +,+ +,< 25%,
COc1ccnc(C(=O)N[C@H]2COC(=O)[C@H](Cc3ccccc3)[C@@H](OC(=O)C(C)C)[C@H](C)OC2=O)c1OC(=O)C1CC1 [Compound 601],,< 80%,,195 to 196 °C,,,,< 80%,< 25%,< 80%,,< 80%,< 80%,< 80%,+ +,+ +,+ +,< 25%,
COc1ccnc(C(=O)N[C@H]2COC(=O)[C@H](Cc3ccccc3)[C@@H](OC(=O)C(C)C)[C@H](C)OC2=O)c1OC(=O)C1CCC1 [Compound 604],,< 80%,,176 to 177 °C,,,,< 80%,< 25%,< 80%,,< 80%,< 80%,< 80%,+ +,+ +,+ +,,ERYSGT in vivo 1 Day Protectant (Erysiphe graminis—ERYSGT; [10]): + +
COc1ccnc(C(=O)N[C@H]2COC(=O)[C@H](Cc3ccccc3)[C@@H](OC(=O)C(C)C)[C@H](C)OC2=O)c1OC(=O)CC(C)(C)C [Compound 610],,< 80%,,151 to 152 °C,,,,< 80%,< 25%,< 80%,,< 80%,> 80%,< 80%,,,,< 25%,"pest or weed control at 100 ppm (Septoria tritici—SEPTTR; [10]): < 25%; pest or weed control at 100 ppm [4, 10]: < 25%; pest or weed control at 100 ppm [7, 10]: 25 to 74%"
COCCC(=O)Oc1c(OC)ccnc1C(=O)N[C@H]1COC(=O)[C@H](Cc2ccccc2)[C@@H](OC(=O)C(C)C)[C@H](C)OC1=O [Compound 658],,< 80%,,126 to 128 °C,,,,< 80%,< 25%,> 80%,,< 80%,< 80%,< 80%,+ +,+ +,+ +,< 25%,
